Assay results published in EP4778931A1, “ULK1 INHIBITOR, PREPARATION METHOD THEREFOR AND USE THEREOF” (Dovetree Medicines Unus, Inc., priority 2023, dated 2025).

What follows are compounds tested on ATG13 phosphorylation level in MIA PaCa-2 cells (assay: Inhibition of ATG13 phosphorylation level in MIA PaCa-2 cells (Phospho-Atg13 (ser355) ELISA)). Conditions: Homo sapiens, Torin1 100 nM, 24 h incubation, 8 concentrations, highest 10 µM, read-out: pATG13 ELISA IC50.
Type: cell-based
Procedure: The inhibitory effect of the compound of the present disclosure on ULK1 was evaluated by testing the inhibitory effect of the compound of the present disclosure on ATG13 phosphorylation level in MIA PaCa-2 cells.
MIA PaCa-2 cells (ATCC, CRM-CRL-1420) were cultured in a complete medium, namely, a DMEM medium (Gibco, 11965-092) containing 10% fetal bovine serum (Corning, 35-081-CV), 2.5% horse serum (Gibco, 16050-122) and 1% double antibody (Gibco, 15140-122). The experiments were performed according to the requirements of the kit (Cell Signaling Technology, 17208C).
Cell plating: MIA PaCa-2 at 80% growth confluence were digested, diluted with the complete medium, and added to a 96-well cell culture plate (Costar, 3596) at 20,000 cells per well, with a volume of 90 µL.
Compound incubation: 5 µL of Torin1 and 5 µL of a serially diluted compound were added to each well so that the highest concentration of the compound in the reaction system was 10 µM. 5-fold serial dilution with 8 concentrations was performed, and the final concentration of Torin1 was 100 nM. The DMSO content in the system was 0.1%. The reaction plate was placed in an incubator at 37°C in 5% CO2, and was incubated for 24 h. 10 µL of Torin1 was added to the negative control wells (NC) to a final concentration of 100 nM, with a DMSO content of 0.1%.
Reaction detection: After the incubation was completed, the cell plate was washed with a pre-cooled DPBS (Corning, 21-031-CVC) to wash away the compound and medium. 50 µL of pre-cooled cell lysis solution was added to each well, incubated on ice for 10 min. The cell plate was centrifuged, and the supernatant was transfered to an ELISA reaction plate. Simultaneously, 50 µL of Phospho-Atg13 (ser355) rabbit detection antibody was added, followed by incubation at room temperature under shaking for 60 min. After the incubation was completed, the reaction plate was washed with a washing solution for 4 times. 100 µL of TMB substrate was added for color development reaction, followed by incubation under shaded conditions with shaking for 15 min. Finally, 100 µL of stop solution was added to each well. The reaction was terminated by shaking for 10 s, and the absorbance value at 450 nm and 560 nm were collected within 10 min using Envision (Perkin Elmer, EnVision 2105).
The inhibition ratio was calculated by subtracting the absorbance value at […] from the absorbance value at 450 nm for each well. The inhibition ratio formula is as follows: [formula]
The dose-effect curve was fitted using the log (inhibitor) vs. response -Variable slope of Graphpad Prism8, thereby affording the IC50 value of each compound for inhibiting ATG13 phosphorylation level.

Row | SMILES | IC50
1 | CN1CCN2c3ccc(Nc4ncc(C(F)(F)F)c(N5CC6(CN(C)C6)C5)n4)cc3COCC2C1 (centres unmarked) [Compound 22] | 100 to 1000 nM
2 | CN1CCN2c3ccc(Nc4ncc(C(F)(F)F)c(N5CC6(CCN(C)C6)C5)n4)cc3COCC2C1 (centres unmarked) [Compound 20] | 100 to 1000 nM
3 | CN1CCN2c3ccc(Nc4ncc(C(F)(F)F)c(N[C@H]5CC[C@@H](n6cccn6)CC5)n4)cc3COCC2C1 (some centres unmarked) [Compound 6] | 100 to 1000 nM
4 | CN1CCN2c3ccc(Nc4ncc(C(F)(F)F)c(N5CCC6(CCN(C)C6)CC5)n4)cc3COCC2C1 (centres unmarked) [Compound 2] | > 1000 nM
5 | CN1CCN2c3ccc(Nc4ncc(C(F)(F)F)c(OCCCN5CCCCC5=O)n4)cc3OCC2C1 (centres unmarked) [Compound 12] | 100 to 1000 nM
6 | CN1CCN2c3ccc(Nc4ncc(C(F)(F)F)c(OCCCn5cccn5)n4)cc3COCC2C1 (centres unmarked) [Compound 23] | > 1000 nM
7 | CN1CCN2c3ccc(Nc4ncc(C(F)(F)F)c(NCCCN5CCCCC5=O)n4)cc3COCC2C1 (centres unmarked) [Compound 11] | < 100 nM
8 | CN1CCN2c3ccc(Nc4ncc(C(F)(F)F)c(NC5CCN(C(=O)C6CCC6)CC5)n4)cc3COCC2C1 (centres unmarked) [Compound 21] | > 1000 nM
9 | CN1CCN2c3ccc(Nc4ncc(C(F)(F)F)c(OCCCc5ccccc5C#N)n4)cc3COCC2C1 (centres unmarked) [Compound 9] | 100 to 1000 nM
10 | CN1CCN2c3ccc(Nc4ncc(C(F)(F)F)c(N5CCN(C)C(=O)C5)n4)cc3COCC2C1 (centres unmarked) [Compound 1] | > 1000 nM
11 | CN1CCN2c3ccc(Nc4ncc(C(F)(F)F)c(NCCCn5cccn5)n4)cc3COCC2C1 (centres unmarked) [Compound 8] | > 1000 nM
12 | CN1CCN2c3ccc(Nc4ncc(C(F)(F)F)c(N5CCC6(CCN(C)C6)C5)n4)cc3COCC2C1 (centres unmarked) [Compound 5] | 100 to 1000 nM
13 | CN1CCN2c3ccc(Nc4ncc(C(F)(F)F)c(N5CCC(n6cccn6)CC5)n4)cc3COCC2C1 (centres unmarked) [Compound 4] | > 1000 nM
14 | CN1CCN2c3ccc(Nc4ncc(C(F)(F)F)c(OCCCN5CCCCC5=O)n4)cc3COCC2C1 (centres unmarked) [Compound 3] | 100 to 1000 nM
